Assays:
[1] = target: recombinant human AMPK complex 7 (containing α2β1γ1) (Homo sapiens (Human), UniProt P54646+Q9Y478); experiment: in vitro AMPK activation assay (AMPKSAMSF), complex 7; type: biochemical; conditions: for Emax: 10-point titration, expressed as % maximum AMP activation; for EC50: inflection point reflecting 50% of the maximum activation, table head names AMPK complex 7
Method: AMPKSAMSF (in vitro AMPK activation assay)
The recombinant human AMPK complex 1 (containing α1β1γ1) or AMPK complex 7 (containing α2β1γ1) was obtained from baculovirus expression system. Recombinant viruses were generated by cotransfection of AMPK/pBacPak9 clones with Baculogold baculovirus DNA (Pharmingen) in spodoptera frugiperda 21 cells according to the manufacturer's instructions. Each round of virus amplification was performed for 5 days in Grace's medium containing 10% serum. Virus that had been subjected to three rounds of amplification was used for all protein production procedures. To express the AMPK complex, sf21 cells were adapted to serum free medium (SF900II, Invitrogen) by sequential dilution from serum containing stocks into SF900II medium and maintained in shaker flasks at 90 rpm at 27° C. The recombinant AMPK enzyme complex was produced by triple infection, one recombinant virus for each of the subunits, in sf21 cells under serum free conditions. Cells were infected in log phase, 1×10^6 cells/ml, at a multiplicity of infection of 5. Cells were harvested by centrifugation at 10,000×g for 15 minutes after 72 hours of infection with viruses. The insect cell pellet from 2 liters of culture was resuspended in 50 ml lysis buffer (20 mM Tris-HCl, 50 mM NaCl, 50 mM NaF, 30 mM Na PPi, 0.25 M sucrose, 10 mM ZnCl2, 2 mM DTT, 0.4 mg/ml digitonin) and subjected to two cycles of freeze-thaw lysis in a dry-ice ethanol bath. Insoluble material was removed by centrifugation at 10,000×g and the supernatant was fractionated with use of polyethylene glycol (PEG). The protein fraction precipitating between 2.5 and 6% PEG was used for further purification using a Blue-Sepharose step (Zhou et al, J. Clin. Invest. 108, 1167-1174, 2001).
The in vitro AMPK activation assay is performed in a volume of 30 μl in a 384-well plate. Enzyme reactions were assembled in the microtiter plate by adding 15 μl of 2× enzyme in assay buffer (20 mM HEPES, pH 7.3, 5 mM MgCl2, 3 mM DTT, 0.01% Brij 35 and CamK Kinase, to activate AMPK) to wells which contained either DMSO or compound. The reaction was initiated with the addition of 15 μl 2× substrate mixture containing 200 μM ATP, and 3.0 μM fluorescently labeled SAMS (5-FAM-HMRSAMSGLHLVKRR-COOH) in assay buffer. After 45-minute incubation at 25° C., the reaction was stopped by the addition of 70 μl stop buffer (100 mM HEPES, pH 7.3, 40 mM EDTA, 0.015% Brij 35). Phosphorylated 5-FAM SAMS product is assessed using a Caliper EZ Reader LabChip microfluidics reader. Product conversion is determined by calculating the peak heights of the substrate and product and reporting the product/(product+substrate) peak ratio. The 10-point titration data were expressed as % maximum AMP activation. The results were plotted using 4 parameter fit and the inflection point reflecting 50% of the maximum activation was reported as the EC50.

ob/ob and db/db mice = conditions: following 8 weeks of administration; cited from earlier work

recombinant human AMPK complex 7 (containing α2β1γ1), sequence (P54646 whole entry): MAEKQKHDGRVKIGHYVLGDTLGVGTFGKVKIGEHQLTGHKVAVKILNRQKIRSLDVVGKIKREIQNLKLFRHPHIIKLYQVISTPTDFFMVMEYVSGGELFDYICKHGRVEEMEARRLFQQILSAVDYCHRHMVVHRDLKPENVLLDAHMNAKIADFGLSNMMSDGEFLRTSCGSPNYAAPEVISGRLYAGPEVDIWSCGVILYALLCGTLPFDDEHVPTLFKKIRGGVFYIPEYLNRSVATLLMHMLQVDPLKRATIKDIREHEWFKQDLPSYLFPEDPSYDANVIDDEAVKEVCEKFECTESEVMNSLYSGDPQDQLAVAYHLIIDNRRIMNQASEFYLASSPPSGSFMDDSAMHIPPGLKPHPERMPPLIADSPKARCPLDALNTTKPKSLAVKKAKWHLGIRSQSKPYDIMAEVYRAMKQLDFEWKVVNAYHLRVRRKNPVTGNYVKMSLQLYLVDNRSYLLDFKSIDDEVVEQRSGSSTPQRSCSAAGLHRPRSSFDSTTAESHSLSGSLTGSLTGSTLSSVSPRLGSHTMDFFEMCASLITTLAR
recombinant human AMPK complex 7 (containing α2β1γ1), sequence (Q9Y478 whole entry): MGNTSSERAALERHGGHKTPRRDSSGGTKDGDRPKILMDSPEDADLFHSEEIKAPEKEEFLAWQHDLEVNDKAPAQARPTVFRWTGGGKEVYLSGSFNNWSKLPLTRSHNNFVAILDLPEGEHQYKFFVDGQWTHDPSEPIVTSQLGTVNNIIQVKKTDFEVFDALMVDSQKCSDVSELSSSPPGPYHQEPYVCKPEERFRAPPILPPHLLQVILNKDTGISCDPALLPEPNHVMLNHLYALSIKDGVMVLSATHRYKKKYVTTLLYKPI
recombinant human AMPK complex 7 (containing α2β1γ1), sequence (P54619 whole entry partner): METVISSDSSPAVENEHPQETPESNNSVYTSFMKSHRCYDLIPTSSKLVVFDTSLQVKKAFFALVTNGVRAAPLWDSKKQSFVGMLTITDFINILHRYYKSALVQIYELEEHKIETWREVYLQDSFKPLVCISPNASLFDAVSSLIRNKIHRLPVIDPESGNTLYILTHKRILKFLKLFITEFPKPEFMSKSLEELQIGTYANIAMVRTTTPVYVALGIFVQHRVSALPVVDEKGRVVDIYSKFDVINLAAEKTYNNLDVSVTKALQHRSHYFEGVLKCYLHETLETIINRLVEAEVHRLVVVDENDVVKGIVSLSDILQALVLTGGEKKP

Structure (SMILES) | Emax [1] [%] | EC50 [1] [nM] | blood glucose reduction (ob/ob and db/db mice) [%]
O=C(O)C1CCC(c2ccc(-c3ccc(-c4nc5nc(O[C@@H]6CO[C@H]7[C@@H]6OC[C@H]7O)[nH]c5cc4Cl)cc3)cc2)=N1 (stereo partly drawn) [Example 125] | 350 | 6 | 
Oc1ccnc(-c2ccc(-c3ccc(-c4nc5nc(O[C@@H]6CO[C@H]7[C@@H]6OC[C@H]7O)[nH]c5cc4Cl)cc3)cc2)n1 [Example 130] | 291 | 2 | 
O=C(O)CCCc1ccc(-c2ccc(-c3nc4nc(O[C@@H]5CO[C@H]6[C@@H]5OC[C@H]6O)[nH]c4cc3Cl)cc2)cc1 [Example 86] | 314 | 4 | 
O=C1CC(c2ccc(-c3ccc(-c4nc5nc(O[C@@H]6CO[C@H]7[C@@H]6OC[C@H]7O)[nH]c5cc4Cl)cc3)cc2)CN1 (stereo partly drawn) [Example 149] | 322 | 2 | 
Cc1nnc(-c2ccc(-c3ccc(-c4nc5nc(O[C@@H]6CO[C@H]7[C@@H]6OC[C@H]7O)[nH]c5cc4Cl)cc3)cc2)o1 [Example 87] | 285 | 3 | 
CCN(CC)c1ccc(-c2ccc(-c3nc4nc(O[C@@H]5CO[C@H]6[C@@H]5OC[C@H]6O)[nH]c4cc3Cl)cc2)cc1 [Example 105] | 268 | 5 | 
O[C@@H]1CO[C@H]2[C@@H]1OC[C@H]2Oc1nc2nc(-c3ccc(-c4ccc(C5Cc6nccn6C5)cc4)cc3)c(Cl)cc2[nH]1 (stereo partly drawn) [Example 126] | 303 | 3 | 
O=c1[nH]c(-c2ccc(-c3ccc(-c4nc5nc(O[C@@H]6CO[C@H]7[C@@H]6OC[C@H]7O)[nH]c5cc4Cl)cc3)cc2)no1 [Example 138] | 333 | 4 | 
O[C@@H]1CO[C@H]2[C@@H]1OC[C@H]2Oc1nc2nc(-c3ccc(-c4ccc(Cn5ccnc5)cc4)cc3)c(Cl)cc2[nH]1 [Example 147] | 348 | 4 | 
O[C@@H]1CO[C@H]2[C@@H]1OC[C@H]2Oc1nc2nc(-c3ccc(-c4ccc(Cn5ncnn5)cc4)cc3)c(Cl)cc2[nH]1 [Example 142] | 337 | 2 | 
O=c1ccn(-c2ccc(-c3ccc(-c4nc5nc(O[C@@H]6CO[C@H]7[C@@H]6OC[C@H]7O)[nH]c5cc4Cl)cc3)cc2)[nH]1 [Example 150] | 322 | 1 | 
O=c1ncn(-c2ccc(-c3ccc(-c4nc5nc(O[C@@H]6CO[C@H]7[C@@H]6OC[C@H]7O)[nH]c5cc4Cl)cc3)cc2)[nH]1 [Example 129] | 305 | 1 | 
O=c1[nH]ccn1-c1ccc(-c2ccc(-c3nc4nc(O[C@@H]5CO[C@H]6[C@@H]5OC[C@H]6O)[nH]c4cc3Cl)cc2)cc1 [Example 73] | 357 | 4 | 
Cc1cc(-c2ccc(-c3ccc(-c4nc5nc(O[C@@H]6CO[C@H]7[C@@H]6OC[C@H]7O)[nH]c5cc4Cl)cc3)cc2)c(=O)[nH]n1 [Example 131] | 289 | 3 | 
CC(C)(O)CN1Cc2cn(-c3ccc(-c4nc5nc(O[C@@H]6CO[C@H]7[C@@H]6OC[C@H]7O)[nH]c5cc4Cl)cc3)nc2C1 [Example 14, (3R,3aR,6R,6aR)-6-[[6-chloro-5-[4-[5-(2-hydroxy-2-methyl-propyl)-5,6-dihydro-4H-pyrrolo[3,4-c]pyrazol-5-ium-2-yl]phenyl]-1H-imidazo[4,5-b]pyridin-2-yl]oxy]-2,3,3a,5,6,6a-hexahydrofuro[3,2-b]furan-3-ol; 2,2,2-trifluoroacetate] | 276 | 29 | 
C=CCO[C@@H]1CO[C@H]2[C@@H]1OC[C@H]2Oc1nc2nc(-c3ccc(-c4ccccc4)cc3)c(Cl)cc2[nH]1 [Example 18] | 72 | 6 | 
OCc1ccc(-c2ccc(-c3nc4nc(O[C@@H]5CO[C@H]6[C@@H]5OC[C@H]6O)[nH]c4cc3Cl)cc2)cc1 [Example 146] | 354 | 4 | 
CC(CO)(CO)c1ccc(-c2ccc(-c3nc4nc(O[C@@H]5CO[C@H]6[C@@H]5OC[C@H]6O)[nH]c4cc3Cl)cc2)cc1 [Example 79] | 337 | 2 | 
CC1(c2ccc(-c3ccc(-c4nc5nc(O[C@@H]6CO[C@H]7[C@@H]6OC[C@H]7O)[nH]c5cc4Cl)cc3)cc2)COC1 [Example 145] | 348 | 8 | 
Cn1c(-c2ccc(-c3ccc(-c4nc5nc(O[C@@H]6CO[C@H]7[C@@H]6OC[C@H]7O)[nH]c5cc4Cl)cc3)cc2)cnc1N [Example 127] | 281 | 4 | 
O[C@@H]1CO[C@H]2[C@@H]1OC[C@H]2Oc1nc2nc(-c3ccc(C#CC4CCNCC4)cc3)c(Cl)cc2[nH]1 [Example 71] | 420 | 10 | 
O[C@@H]1CO[C@H]2[C@@H]1OC[C@H]2Oc1nc2nc(-c3ccc(-c4ccc(-n5cc(C(O)(O)C(F)(F)F)nn5)cc4)cc3)c(Cl)cc2[nH]1 [Example 128] | 286 | 2 | 
O[C@@H]1CO[C@H]2[C@@H]1OC[C@H]2Oc1nc2nc(-c3ccc(-c4ccc(C5CNCCO5)cc4)cc3)c(Cl)cc2[nH]1 (stereo partly drawn) [Example 133] | 359 | 1 | 
CN(C)CCOc1ccc(-c2ccc(-c3nc4nc(O[C@@H]5CO[C@H]6[C@@H]5OC[C@H]6O)[nH]c4cc3Cl)cc2)cc1 [Example 151] | 323 | 2 | 
N#Cc1ccc(-c2ccc(-c3nc4nc(O[C@@H]5CO[C@H]6[C@@H]5OC[C@H]6O)[nH]c4cc3Cl)cc2)c(F)c1 [Example 102] | 304 | 5 | 
NC(=O)c1ncn([C@@H]2O[C@H](CO)[C@@H](O)[C@H]2O)c1N [AICAR] |  |  | 35

Source: patent publication US9290517B2, “Azabenzimidazole hexahydrofuro[3,2-b]furan derivatives” (Merck Sharp & Dohme Corp., priority 2012, dated 2016)
